Laboratory results published in patent US9056837B2, “Heterocycle compounds and uses thereof” (Intra-Cellular Therapies, Inc., priority 2007, dated 2015).

Experiment: Mouse brain/plasma distribution assay for tissue levels of test compounds
Assay type: in vivo, C57b1/6 black mice
Settings: C57Bl/6, mouse, brain, sc; mice, subcutaneous single injection of 1 mg (10 mM DMSO solution); four hours post-administration; measured minus 2% of plasma
Procedure: Compounds are administered subcutaneously to C57b1/6 black mice as a single injection of 1 mg using a 10 mM DMSO solution. After 2 or 4 hours, the mice are sacrificed. Trunk blood is collected into tubes with potassium-EDTA as anticoagulant and centrifuged at 5000×g for 10 min. The upper plasma phase is decanted from cellular components. Whole brain is sonicated with 20 mM Tris-HCl, 135 mM NaCl, pH 7.4 buffer, giving at 200 mg/mL (w/v) homogenate. Brain homogenate or plasma is extracted with 2 volumes of acetonitrile and clarified by centrifugation at 15,000×g for 20 min. Extracts are separated by HPLC using a Waters Alliance 2695 separations module with a Sunfire™ C18 column (3.5 micron, 2.1×50 mm) and a gradient of methanol over 15 min in a mobile phase of 0.1% formic acid. The separation is monitored by a Micromass Quattro Micro triple-quadrupole mass-spectrometric detector. Compound standardization is performed by methods analogous to those previously reported, e.g., by Zhao, M., et al. (2005) J Chromatogr B Analyt Technol Biomed Life Sci 819, 73-80; and Appels, N. M et al. (2005) Rapid Commun Mass Spectrom 19, 2187-2192. Brain concentration=measured−2% of plasma B/P ratio=brain concentration/plasma concentration

concentration at 4 h: < 100 nM
Structure (SMILES): Cc1ccc(NC(=O)c2ccc(CN3CCN(C)CC3)cc2)cc1Nc1nccc(-c2cccnc2)n1 [imatinib]
